Measured values: the CheMixHub viscosity set
Values joined by “and” are separate entries in the source; they are usually repeats but may differ in a detail not shown here. Identical values can stand only once. ± gives the uncertainty stated by the source.

Test: xn = mol fraction of the nth substance listed

c1ccc2ccccc2c1 + c1ccccc1
Settings | viscosity
293.15 K, 101 kPa, x1 = 0.006242 | 0.653 ± 0.023 mPa·s
293.15 K, 101 kPa, x1 = 0.01216 | 0.66 ± 0.023 mPa·s
293.15 K, 101 kPa, x1 = 0.02495 | 0.674 ± 0.024 mPa·s
298.15 K, 101 kPa, x1 = 0.051 | 0.6565 ± 0.017 mPa·s
298.15 K, 101 kPa, x1 = 0.1121 | 0.7261 ± 0.019 mPa·s
298.15 K, 101 kPa, x1 = 0.1538 | 0.7707 ± 0.02 mPa·s
298.15 K, 101 kPa, x1 = 0.1979 | 0.8263 ± 0.022 mPa·s
298.15 K, 101 kPa, x1 = 0.2398 | 0.8764 ± 0.023 mPa·s
298.15 K, 101 kPa, x1 = 0.2476 | 0.8712 ± 0.022 mPa·s
298.15 K, 101 kPa, x1 = 0.2693 | 0.9178 ± 0.024 mPa·s
298.15 K, 101.33 kPa, x1 = 0.0282 | 0.6309 ± 0.0063 mPa·s
298.15 K, 101.33 kPa, x1 = 0.069 | 0.6732 ± 0.0066 mPa·s
298.15 K, 101.33 kPa, x1 = 0.0898 | 0.6932 ± 0.0068 mPa·s
298.15 K, 101.33 kPa, x1 = 0.1341 | 0.7423 ± 0.0072 mPa·s
298.15 K, 101.33 kPa, x1 = 0.1587 | 0.7733 ± 0.0075 mPa·s
298.15 K, 101.33 kPa, x1 = 0.2089 | 0.833 ± 0.008 mPa·s
298.15 K, 101.33 kPa, x1 = 0.25 | 0.8712 ± 0.0087 mPa·s
298.15 K, 101.33 kPa, x1 = 0.2533 | 0.8891 ± 0.0085 mPa·s
303.15 K, 101 kPa, x1 = 0.2476 | 0.8077 ± 0.02 mPa·s
303.15 K, 101 kPa, x1 = 0.3593 | 0.9452 ± 0.024 mPa·s
303.15 K, 101.33 kPa, x1 = 0.0282 | 0.5882 ± 0.0059 mPa·s
303.15 K, 101.33 kPa, x1 = 0.069 | 0.6269 ± 0.0062 mPa·s
303.15 K, 101.33 kPa, x1 = 0.0898 | 0.6448 ± 0.0064 mPa·s
303.15 K, 101.33 kPa, x1 = 0.1341 | 0.6897 ± 0.0068 mPa·s
303.15 K, 101.33 kPa, x1 = 0.1587 | 0.7181 ± 0.007 mPa·s
303.15 K, 101.33 kPa, x1 = 0.2089 | 0.7723 ± 0.0075 mPa·s
303.15 K, 101.33 kPa, x1 = 0.25 | 0.8077 ± 0.0081 mPa·s and 0.8077 ± 0.083 mPa·s
303.15 K, 101.33 kPa, x1 = 0.2533 | 0.8222 ± 0.0079 mPa·s
303.15 K, 101.33 kPa, x1 = 0.26 | 0.8211 ± 0.085 mPa·s
303.15 K, 101.33 kPa, x1 = 0.33 | 0.874 ± 0.09 mPa·s
303.15 K, 101.33 kPa, x1 = 0.36 | 0.9452 ± 0.0095 mPa·s and 0.9452 ± 0.098 mPa·s
308.15 K, 101 kPa, x1 = 0.2476 | 0.7485 ± 0.019 mPa·s
308.15 K, 101 kPa, x1 = 0.3593 | 0.8742 ± 0.022 mPa·s
308.15 K, 101.33 kPa, x1 = 0.25 | 0.7485 ± 0.0075 mPa·s
308.15 K, 101.33 kPa, x1 = 0.36 | 0.8742 ± 0.0087 mPa·s
313.15 K, 101 kPa, x1 = 0.006242 | 0.501 ± 0.02 mPa·s
313.15 K, 101 kPa, x1 = 0.01216 | 0.505 ± 0.02 mPa·s
313.15 K, 101 kPa, x1 = 0.02495 | 0.514 ± 0.02 mPa·s
313.15 K, 101 kPa, x1 = 0.2476 | 0.6983 ± 0.018 mPa·s
313.15 K, 101 kPa, x1 = 0.3593 | 0.8115 ± 0.02 mPa·s
313.15 K, 101.33 kPa, x1 = 0.0282 | 0.516 ± 0.0053 mPa·s
313.15 K, 101.33 kPa, x1 = 0.069 | 0.5478 ± 0.0055 mPa·s
313.15 K, 101.33 kPa, x1 = 0.0898 | 0.5665 ± 0.0057 mPa·s
313.15 K, 101.33 kPa, x1 = 0.1341 | 0.6017 ± 0.006 mPa·s
313.15 K, 101.33 kPa, x1 = 0.1587 | 0.6263 ± 0.0062 mPa·s
313.15 K, 101.33 kPa, x1 = 0.2089 | 0.6698 ± 0.0066 mPa·s
313.15 K, 101.33 kPa, x1 = 0.25 | 0.6983 ± 0.007 mPa·s
313.15 K, 101.33 kPa, x1 = 0.2533 | 0.72 ± 0.007 mPa·s
313.15 K, 101.33 kPa, x1 = 0.36 | 0.8115 ± 0.0081 mPa·s
318.15 K, 101 kPa, x1 = 0.2476 | 0.654 ± 0.016 mPa·s
318.15 K, 101 kPa, x1 = 0.3593 | 0.7546 ± 0.019 mPa·s
318.15 K, 101.33 kPa, x1 = 0.25 | 0.654 ± 0.0065 mPa·s and 0.654 ± 0.068 mPa·s
318.15 K, 101.33 kPa, x1 = 0.26 | 0.666 ± 0.069 mPa·s
318.15 K, 101.33 kPa, x1 = 0.33 | 0.7066 ± 0.073 mPa·s
318.15 K, 101.33 kPa, x1 = 0.36 | 0.7546 ± 0.0075 mPa·s and 0.7546 ± 0.078 mPa·s
318.15 K, 101.33 kPa, x1 = 0.418 | 0.817 ± 0.084 mPa·s
323.15 K, 101 kPa, x1 = 0.009498 | 0.445 ± 0.018 mPa·s
323.15 K, 101 kPa, x1 = 0.02432 | 0.454 ± 0.018 mPa·s
323.15 K, 101 kPa, x1 = 0.02618 | 0.456 ± 0.019 mPa·s
323.15 K, 101.33 kPa, x1 = 0.0282 | 0.4564 ± 0.0048 mPa·s
323.15 K, 101.33 kPa, x1 = 0.069 | 0.4838 ± 0.005 mPa·s
323.15 K, 101.33 kPa, x1 = 0.0898 | 0.4993 ± 0.0051 mPa·s
323.15 K, 101.33 kPa, x1 = 0.1341 | 0.529 ± 0.0054 mPa·s
323.15 K, 101.33 kPa, x1 = 0.1587 | 0.5509 ± 0.0056 mPa·s
323.15 K, 101.33 kPa, x1 = 0.2089 | 0.5871 ± 0.0059 mPa·s
323.15 K, 101.33 kPa, x1 = 0.2533 | 0.6319 ± 0.0063 mPa·s

CC(=O)N(C)c1ccccc1 + c1ccncc1
298.15 K, 101 kPa
Settings | viscosity [mPa·s]
x1 = 0.0361 | 0.967 ± 0.19
x1 = 0.06268 | 1.022 ± 0.2
x1 = 0.09446 | 1.082 ± 0.22
